Structures are written as SMILES.

By IC50 is commonly meant the concentration that gives 50% inhibition. Broadly, the AUC(0-inf) is the area under the concentration-time curve extrapolated to infinity. Usually AUC(0-t) stands for the area under the concentration-time curve up to a stated or last time point. For orientation: Cmax means the maximum level reached in the sampled fluid or tissue. Usually Tmax stands for the time at which the peak concentration occurs. Usually half-life stands for how long it takes for the measured level to halve.

In one data set the target is T1, PI3Kβ (Homo sapiens, UniProt P42338).
T1 construct: purchased Carna #11-102
Description: ADP-Glo Lipid Kinase Assay, PI3Kβ kinase activity. In kind it is biochemical. The conditions noted are these: ratio of IC50 values. The procedure:
(§1) In this experiment, ADP-Glo Lipid Kinase Assay (Promega #V9102) from Promega was used. The lipid kinases PI3Kα/β/γ/δ catalyzed the ATP-to-ADP reaction in the presence of the substrate PIP2:3PS and ATP. The lipid kinase activity was characterized by measuring the ADP content in the reaction, and the half inhibition concentrations IC50 of the compounds on PI3Kα/β/γ/δ kinase activity were obtained.
(§2) Kinase reactions were carried out in white 384-well plates (Perkin Elmer #6007299). 2 μL of the compound of various concentrations diluted with ddH2O containing 1% DMSO was added to each well, and 2 μL of ddH2O containing 1% DMSO was added to positive control wells. Then 2 μL of 0.1 to 2 nM PI3K kinase solution diluted with 5× kinase buffer (HEPES 250 mM, MgCl2 15 mM, NaCl 250 mM, BSA 0.05%) was added to each well, and 2 μL of 5× kinase buffer was added to the negative control wells. 4 μL of 50 μM substrate PIP2:3PS (Promega #V1701) prepared with 10× Dilution buffer and ddH2O was added to all wells. Finally, 2 μL of 50 to 100 μM ATP solution diluted with water was added to start the reaction. After the reaction was carried out at room temperature for 90 to 120 minutes, 10 µL of ADP-Glo Reagent (containing 10 mM MgCl2) was added to each well, and the reaction was carried out at room temperature for 60 minutes to eliminate excess adenosine triphosphate (ATP) in the reaction. Then 20 μL of Kinase Detection Reagent was added to each well. After the reaction was carried out for 20 minutes at room temperature in the dark, the chemiluminescence was measured by BioTek Synergy H1 microplate reader.
(§3) The percentage inhibition data of the compound-treated well was calculated from positive control wells (DMSO control wells) and negative control wells (no kinase added) on the plate {% inhibition=100−[(test compound value−negative control value)]/(positive control value-negative control value)×100}. IC50 values were calculated using GraphPad prism and using a four-parameter nonlinear logistic formula to fit the data of different concentrations and corresponding percent inhibition.
In general terms: ADP-Glo turns the ADP formed in a reaction into a luminescent signal.

Another data set relates to HGC-27 (E542K). Description: Proliferation inhibition of PI3Kα mutant cancer cells, Cell Titer-Glo, HGC-27. In kind it is cell-based. The conditions noted are these: Homo sapiens. The procedure: (§4) The proliferation inhibitory effect of the compounds of the examples on the PI3Kα mutant cancer cell lines (HCC1954, HGC-27 and MKN1) was detected by Cell Titer-Glo method. Cell lines were cultured in RPMI 1640 medium (Gibco #22400089) containing 10% FBS (Gibco #10091148) and 1% P/S (Hyclone #SV30010) under the condition of 37° C. and 5% CO2. The cells were collected before the experiment, and the cell density was adjusted after cell counting. The cells were seeded in a white 96-well plate (Corning #3610) at a density of 1000 to 10000 cells/well, and incubated in an incubator at 37° C. and 5% CO2 overnight. The prepared compound solutions of different concentrations and the corresponding solvent controls were added to the plate. The plate was again incubated in an incubator at 37° C. and 5% CO2 for 48 to 96 hours. Then the cell plate and its contents were equilibrated to room temperature. 20 to 100 μL of Cell Titer-Glo solution (Promega #G7573) was added to each well, and the plate was shaken and mixed well, then incubated at room temperature for 5 to 30 minutes in the dark. The chemiluminescence was measured by a SynergyH1 microplate reader from BioTek.
(§5) The percentage inhibition data of the compound-treated well was calculated from solvent control wells on the plate {% inhibition=100−([…])×100}. IC50 values were calculated using GraphPad prism and using a four-parameter nonlinear logistic formula to fit the data of different concentrations and corresponding percent inhibition.

The test system of a further data set is MKN1 (E545K). Description: Proliferation inhibition of PI3Kα mutant cancer cells, Cell Titer-Glo, MKN1. In kind it is cell-based. The conditions noted are these: Homo sapiens, MKN-1. The procedure:
as §4, §5

For a further data set, the system named is HCC1954 (H1047R). The experiment in a line: Proliferation inhibition of PI3Kα mutant cancer cells, Cell Titer-Glo, HCC1954. In kind it is cell-based. The conditions noted are these: Homo sapiens. The procedure:
as §4, §5
For orientation: ATP-based viability assays read luminescence as a measure of living cells.

Another data set addresses T2, PI3Kγ (Homo sapiens, UniProt P48736).
T2 construct: purchased Thermofisher #PV4786
The experiment in a line: ADP-Glo Lipid Kinase Assay, PI3Kγ kinase activity. The conditions noted are these: ratio of IC50 values. In kind it is biochemical. The procedure: as §1, §2, §3

The next data set addresses T3, PI3Kδ (Homo sapiens, UniProt O00329).
T3 construct: purchased Carna #11-103
The experiment in a line: ADP-Glo Lipid Kinase Assay, PI3Kδ kinase activity. In kind it is biochemical. The conditions noted are these: ratio of IC50 values. The procedure: as §1, §2, §3

In a further data set the test system is HCC1954 cell. The experiment in a line: In vivo efficacy test, HCC1954 tumor-bearing nude mice. Details: species or system BALB/c nude mice. The conditions noted are these: oral, 10 mg/kg, once/day, 21 days (Example 22: 19 days). The procedure:
• a. A strain of HCC1954 cell was taken from the cell bank, recovered with RPMI-1640 medium (RPMI-1640+10% FBS+1% SP), plated in a cell culture flask (cell type, date, name of the experimenter and the like were labeled on the wall of the flask) and cultured in a CO2 incubator (the temperature was 37° C. and the CO2 concentration was 5% in the incubator). • b. Cells were passaged when they covered 80 to 90% of the bottom of the culture flask. After passage, the cells continued to be cultured in the CO2 incubator. This process was repeated until the number of cells was sufficient for the in vivo efficacy test. • c. The cultured cells were collected and counted with an automatic cell counter, and then resuspended with PBS and Matrigel Matrix according to the counting results to prepare a cell suspension (density 5×10^7/mL), which was placed in an ice box for use. 4.3.2 Cell Inoculation • a. The nude mice were labeled with disposable universal ear tags for rats and mice before inoculation. • b. During the inoculation, the cell suspension was mixed well. 0.1 to 1 mL of the cell suspension was drawn with a 1 mL syringe, air bubbles were removed, and then the syringe was placed on an ice pack for use. • c. The nude mouse was bound with the left hand. The position on the right side of the back close to the right shoulder of the nude mouse (inoculation site) was disinfected with 75% alcohol. Inoculation started after 30 seconds. • d. The test nude mice were successively inoculated (each mouse was inoculated with 0.1 mL of cell suspension). 4.3.3 Tumor Measurement, Grouping and Administration of Tumor-Bearing Mice • a. According to the tumor growth, the tumors was measured on 14 to 18 days after inoculation, and the tumor size was calculated. Calculation of tumor volume: tumor volume (mm^3)=length (mm)×width (mm)×width (mm)/2 • b. The tumor-bearing mice were grouped according to their body weight and tumor size by random grouping. • c. The test compounds were administered according to the grouping results (administration route: oral administration; administration dose: 10 mg/kg; administration volume: 10 mL/kg; administration frequency: once/day; administration cycle: 21 days; vehicle: 0.5% CMC/1% Tween 80). • d. Tumors were measured and weighed twice a week after the administration of test compounds began. • e. Animals were euthanized at the end of the experiment. • f. Data were processed by using softwares such as Excel. […] When the tumor regress, TGI (%)=[1−(average tumor volume of the treatment group at the end of the administration−average tumor volume of the treatment group at the beginning of the administration)/average tumor volume of the treatment group at the beginning of the administration]×100%.

A short description of data set [1]: Hygroscopicity experiment. The conditions noted are these: RH 80%. The format is physicochemical. The procedure:
Crystal form A of mesylate salt, crystal form D of sulfate salt and crystal form A of ethanesulfonate salt of (S)-2-((2-((R)-4-(difluoromethyl)-2-oxothiazolidin-3-yl)-5,6-dihydrobenzo[f]imidazo[1,2-d][1,4]oxazepin-9-yl)amino)propionamide were placed in saturated water vapor with different relative humidity, so that the compound and water vapor reached a dynamic equilibrium, and the percentage of hygroscopic weight gain of the compound after the equilibrium was calculated.

A short description of data set [2]: PK studies in animals of salt crystal forms, intragastric 30 mg/kg. The conditions noted are these: 0.5% HPMC K4M suspension. The format is in vivo. The procedure: 7.2.1 Crystal form A of mesylate salt, crystal form D of sulfate salt and crystal form A of ethanesulfonate salt of (S)-2-((2-((R)-4-(difluoromethyl)-2-oxothiazolidin-3-yl)-5,6-dihydrobenzo[f]imidazo[1,2-d][1,4]oxazepin-9-yl)amino)propionamide were evenly suspended in an aqueous solution containing 0.5% HPMC (hydroxypropyl methylcellulose) K4M, and then intragastrically administered to rats in duplicate at a dose of 30 mg/kg. The amount of the compound was all converted into the amount of the same compound (S)-2-((2-((R)-4-(difluoromethyl)-2-oxothiazolidin-3-yl)-5,6-dihydrobenzo[f]imidazo[1,2-d][1,4]oxazepin-9-yl)amino)propionamide.

Where [3] appears, read: rat, in vivo, po, rats, 30 mg/kg (as free compound).

T2 sequence (P48736 whole entry): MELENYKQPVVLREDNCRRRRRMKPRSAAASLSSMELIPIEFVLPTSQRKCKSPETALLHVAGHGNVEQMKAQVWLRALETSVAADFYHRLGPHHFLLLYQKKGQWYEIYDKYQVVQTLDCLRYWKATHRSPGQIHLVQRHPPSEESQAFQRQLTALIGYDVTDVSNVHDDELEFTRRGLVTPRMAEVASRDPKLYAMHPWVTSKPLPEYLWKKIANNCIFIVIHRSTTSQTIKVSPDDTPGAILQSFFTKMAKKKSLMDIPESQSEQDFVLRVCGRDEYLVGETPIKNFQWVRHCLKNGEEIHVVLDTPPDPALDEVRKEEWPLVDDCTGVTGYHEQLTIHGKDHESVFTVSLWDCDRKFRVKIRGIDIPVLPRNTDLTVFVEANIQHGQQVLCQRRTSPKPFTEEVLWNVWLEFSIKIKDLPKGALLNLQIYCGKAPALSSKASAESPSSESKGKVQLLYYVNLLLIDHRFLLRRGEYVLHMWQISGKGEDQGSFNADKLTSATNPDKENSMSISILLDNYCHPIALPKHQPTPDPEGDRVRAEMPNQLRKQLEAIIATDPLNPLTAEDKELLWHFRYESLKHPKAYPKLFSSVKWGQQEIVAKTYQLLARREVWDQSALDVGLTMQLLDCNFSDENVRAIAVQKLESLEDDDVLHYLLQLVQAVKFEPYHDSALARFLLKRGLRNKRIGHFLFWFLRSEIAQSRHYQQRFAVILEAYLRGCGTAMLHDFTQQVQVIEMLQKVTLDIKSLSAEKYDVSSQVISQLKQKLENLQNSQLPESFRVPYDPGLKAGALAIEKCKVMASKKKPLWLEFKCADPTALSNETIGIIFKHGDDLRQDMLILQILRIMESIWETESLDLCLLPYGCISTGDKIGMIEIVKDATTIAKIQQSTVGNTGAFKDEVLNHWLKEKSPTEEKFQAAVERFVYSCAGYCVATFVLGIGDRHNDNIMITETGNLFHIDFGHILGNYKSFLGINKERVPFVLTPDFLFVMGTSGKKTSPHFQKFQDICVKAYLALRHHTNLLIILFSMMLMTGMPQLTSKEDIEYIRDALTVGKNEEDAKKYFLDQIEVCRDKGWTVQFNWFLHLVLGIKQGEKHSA
T1 sequence (P42338 whole entry): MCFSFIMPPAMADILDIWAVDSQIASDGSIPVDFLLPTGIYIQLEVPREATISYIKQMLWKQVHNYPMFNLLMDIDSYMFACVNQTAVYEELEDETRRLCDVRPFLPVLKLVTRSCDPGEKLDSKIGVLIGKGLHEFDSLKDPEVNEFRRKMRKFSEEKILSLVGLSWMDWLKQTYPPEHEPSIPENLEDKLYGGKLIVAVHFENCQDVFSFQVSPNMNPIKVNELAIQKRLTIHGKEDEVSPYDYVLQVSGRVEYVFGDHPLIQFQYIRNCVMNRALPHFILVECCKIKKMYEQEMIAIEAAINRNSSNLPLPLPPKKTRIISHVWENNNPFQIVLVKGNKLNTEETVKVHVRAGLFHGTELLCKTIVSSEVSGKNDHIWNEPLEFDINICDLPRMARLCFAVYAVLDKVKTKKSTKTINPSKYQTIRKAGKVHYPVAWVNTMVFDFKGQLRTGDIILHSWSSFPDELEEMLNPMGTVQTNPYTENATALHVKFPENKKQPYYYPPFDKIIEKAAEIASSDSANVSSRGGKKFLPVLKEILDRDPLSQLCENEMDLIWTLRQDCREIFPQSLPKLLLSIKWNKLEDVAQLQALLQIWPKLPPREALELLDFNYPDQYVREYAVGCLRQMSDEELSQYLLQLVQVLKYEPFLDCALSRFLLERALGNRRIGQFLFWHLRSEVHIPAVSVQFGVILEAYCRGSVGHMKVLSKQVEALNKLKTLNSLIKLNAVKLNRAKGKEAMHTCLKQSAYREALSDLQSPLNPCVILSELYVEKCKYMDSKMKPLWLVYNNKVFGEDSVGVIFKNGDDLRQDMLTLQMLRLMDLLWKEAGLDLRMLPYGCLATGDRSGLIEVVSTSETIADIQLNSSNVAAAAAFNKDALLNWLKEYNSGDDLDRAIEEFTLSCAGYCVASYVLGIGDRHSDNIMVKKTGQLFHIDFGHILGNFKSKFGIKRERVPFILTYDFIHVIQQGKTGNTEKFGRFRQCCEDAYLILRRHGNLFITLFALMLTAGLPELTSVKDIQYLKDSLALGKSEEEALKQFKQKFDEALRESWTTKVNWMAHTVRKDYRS
T1 sequence (P27986 whole entry partner): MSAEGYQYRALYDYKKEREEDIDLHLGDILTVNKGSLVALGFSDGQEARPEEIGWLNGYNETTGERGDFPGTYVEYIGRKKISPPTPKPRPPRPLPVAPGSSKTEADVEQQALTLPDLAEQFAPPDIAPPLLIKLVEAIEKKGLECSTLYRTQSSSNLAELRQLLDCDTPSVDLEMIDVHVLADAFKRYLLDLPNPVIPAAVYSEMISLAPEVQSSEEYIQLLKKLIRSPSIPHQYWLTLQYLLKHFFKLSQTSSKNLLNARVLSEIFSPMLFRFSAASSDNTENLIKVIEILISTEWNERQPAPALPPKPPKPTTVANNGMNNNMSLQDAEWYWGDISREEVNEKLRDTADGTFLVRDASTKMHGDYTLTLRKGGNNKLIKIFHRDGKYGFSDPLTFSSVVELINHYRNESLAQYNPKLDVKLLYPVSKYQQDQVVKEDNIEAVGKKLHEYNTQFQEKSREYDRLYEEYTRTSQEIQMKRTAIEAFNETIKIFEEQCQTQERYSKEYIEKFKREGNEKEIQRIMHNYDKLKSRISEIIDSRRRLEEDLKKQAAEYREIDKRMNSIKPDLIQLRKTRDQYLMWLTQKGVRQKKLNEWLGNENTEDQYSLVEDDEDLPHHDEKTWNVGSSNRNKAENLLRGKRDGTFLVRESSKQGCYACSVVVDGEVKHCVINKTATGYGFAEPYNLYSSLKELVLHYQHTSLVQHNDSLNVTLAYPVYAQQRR
T3 sequence (O00329 whole entry): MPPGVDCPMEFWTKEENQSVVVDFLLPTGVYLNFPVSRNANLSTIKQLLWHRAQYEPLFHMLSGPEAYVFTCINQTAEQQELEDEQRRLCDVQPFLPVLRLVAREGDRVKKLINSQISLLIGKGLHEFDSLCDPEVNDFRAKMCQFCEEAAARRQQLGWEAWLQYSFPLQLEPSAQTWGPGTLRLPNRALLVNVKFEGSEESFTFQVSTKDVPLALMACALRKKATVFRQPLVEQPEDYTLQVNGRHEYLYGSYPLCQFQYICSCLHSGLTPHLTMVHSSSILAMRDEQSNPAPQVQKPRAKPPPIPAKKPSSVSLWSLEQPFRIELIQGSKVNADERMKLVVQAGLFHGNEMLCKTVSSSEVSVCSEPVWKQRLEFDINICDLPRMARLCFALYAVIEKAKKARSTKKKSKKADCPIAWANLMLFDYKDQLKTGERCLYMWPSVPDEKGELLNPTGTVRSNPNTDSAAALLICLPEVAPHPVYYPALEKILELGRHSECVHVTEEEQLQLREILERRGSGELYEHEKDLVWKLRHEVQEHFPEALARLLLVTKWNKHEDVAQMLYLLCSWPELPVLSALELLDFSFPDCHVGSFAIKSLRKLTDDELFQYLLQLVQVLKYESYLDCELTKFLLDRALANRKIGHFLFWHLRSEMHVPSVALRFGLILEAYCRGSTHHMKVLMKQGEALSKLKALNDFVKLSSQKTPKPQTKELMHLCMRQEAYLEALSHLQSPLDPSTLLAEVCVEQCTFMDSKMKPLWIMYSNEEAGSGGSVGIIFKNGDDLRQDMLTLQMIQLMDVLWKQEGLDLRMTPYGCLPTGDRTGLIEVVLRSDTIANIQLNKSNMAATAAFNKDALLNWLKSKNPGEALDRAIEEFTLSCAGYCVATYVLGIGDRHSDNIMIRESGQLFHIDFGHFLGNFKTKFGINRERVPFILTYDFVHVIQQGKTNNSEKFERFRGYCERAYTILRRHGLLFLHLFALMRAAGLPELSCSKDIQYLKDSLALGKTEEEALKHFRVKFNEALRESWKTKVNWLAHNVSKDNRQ
T3 sequence (P27986 whole entry partner): as the sequence (P27986 whole entry partner) above

Take `C[C@H](Nc1ccc2c(c1)OCCn1cc(N3C(=O)O[C@H](C)[C@H]3C(F)F)nc1-2)C(N)=O` [Example 25, (S)-2-((2-((4S,5R)-4-(difluoromethyl)-5-methyl-2-oxooxazolidin-3-yl)-5,6-dihydrobenzo[f]imidazo[1,2-d][1,4]oxazepin-9-yl)amino)propionamide]: at PI3Kβ, the “Selectivity of PI3Kα vs PI3Kβ” value was found to be 1499. Besides, the IC50 in the data set on HGC-27 (E542K) was found to be 93 nM; with MKN1 (E545K), 84 nM; in the data set on HCC1954 (H1047R), 79 nM. Also, the “Selectivity of PI3Kα vs PI3Kγ” value at PI3Kγ is recorded as 401. Also, the “Selectivity of PI3Kα vs PI3Kδ” value at PI3Kδ was found to be 280. In addition, the “Tumor growth inhibition rate” value in the data set on HCC1954 cell is 120%.
With `C[C@H](Nc1ccc2c(c1F)OCCn1cc(N3C(=O)SC[C@H]3C(F)F)nc1-2)C(N)=O` [Example 50, (S)-2-((2-((R)-4-(difluoromethyl)-2-oxothiazolidin-3-yl)-8-fluoro-5,6-dihydrobenzo[f]imidazo[1,2-d][1,4]oxazepin-9-yl)amino)propionamide], the “Selectivity of PI3Kα vs PI3Kβ” value at PI3Kβ is 197. Moreover, the IC50 is 233 nM in the data set on HGC-27 (E542K), 118 nM with MKN1 (E545K) and 98 nM in the data set on HCC1954 (H1047R). Also, the “Selectivity of PI3Kα vs PI3Kγ” value on PI3Kγ came to 103. In addition, the “Selectivity of PI3Kα vs PI3Kδ” value at PI3Kδ is 81. Also, in the data set with HCC1954 cell, the “Tumor growth inhibition rate” value is on record as 96%.
With `COC[C@H](Nc1ccc2c(c1)OCCn1cc(N3C(=O)SC[C@H]3C(F)F)nc1-2)C(N)=O` [Example 52, (S)-2-((2-((R)-4-(difluoromethyl)-2-oxothiazolidin-3-yl)-5,6-dihydrobenzo[f]imidazo[1,2-d][1,4]oxazepin-9-yl)amino)-3-methoxypropionamide], the “Selectivity of PI3Kα vs PI3Kβ” value at PI3Kβ is on record as 754. Further, the IC50 in the data set on HGC-27 (E542K) amounted to 137 nM; in the data set with MKN1 (E545K) it was 109 nM; in the data set with HCC1954 (H1047R) it was 57 nM. For the same molecule, the “Selectivity of PI3Kα vs PI3Kγ” value at PI3Kγ is recorded as 376. The “Selectivity of PI3Kα vs PI3Kδ” value on PI3Kδ is reported as 139. In addition, in the data set on HCC1954 cell, the “Tumor growth inhibition rate” value is given as 98%.
For the molecule `C[C@H](Nc1ccc2c(c1)OCCn1cc(N3C(=O)SC[C@H]3C(F)F)nc1-2)C(N)=O.O=S(=O)(O)O` [crystal form D of sulfate salt, (S)-2-((2-((R)-4-(difluoromethyl)-2-oxothiazolidin-3-yl)-5,6-dihydrobenzo[f]imidazo[1,2-d][1,4]oxazepin-9-yl)amino)propionamide], in [1], the hygroscopic weight gain is on record as 1.256% and the “hygroscopicity (in words)” value was “had hygroscopicity”. Moreover, in data set [2] (30 mg/kg), the “exposure in rats (in words)” value is listed as “higher exposures”. In addition, in data set [2] (setting [3]), the AUC(0-inf) was 9600 ng·h/mL, the area under the curve AUC(0-t) was 9420 ng·h/mL, the Cmax was found to be 1360 ng/mL and the Tmax stood at 1 h. Also, the half-life in data set [2] (setting [3]) is 3.3 h. In [2] (rat, in vivo, po, rats, 30 mg/kg (as free compound), read-out: MRT0-∞), the MRT inf is 5.77 h.

These data come from patent US12624050B2, “Three fused ring derivative-containing salt or crystal form and pharmaceutical composition thereof” (Shanghai Hansoh Biomedical Co., Ltd., priority 2019, dated 2026).
